From publication PMC9848257, “Design and synthesis of novel rigid dibenzo[b,f]azepines through ring closure technique as promising anticancer candidates against leukaemia and acting as selective topoisomerase II inhibitors and DNA intercalators” (Journal of Enzyme Inhibition and Medicinal Chemistry, 2023)
pIC50: −log10 of the molar value.

What was measured:
[1] = tested on: SN12C; experiment: NCI-60 one-dose screen, SN12C; type: cell-based; conditions: Homo sapiens, renal cancer, single dose 10 μM, read-out: Growth inhibition %
Description: (§1) Anti-proliferative effects of the counterparts 4a–g and 5a–g were screened against 60 human cancer cell lines, following the Developmental Therapeutics Program protocol, National Cancer Institute[35].
(§2) The anti-tumour activity of the fourteen synthesised congeners was investigated at the NCI against a panel of 60 cancer cell lines (NCI-60 Cell One-Dose Screen). The tested dibenzo[b,f]azepine derivatives were screened at a single dose level (10 μM), Table 1.

[2] = tested on: SF-295; experiment: NCI-60 one-dose screen, SF-295; type: cell-based; conditions: Homo sapiens; SF-295, CNS cancer; single dose 10 μM; read-out: Growth inhibition %
Description: as §1, §2

[3] = molecular target: topoisomerase II; experiment: Topoisomerase II inhibitory assay; type: biochemical; conditions: for pIC50: in vitro, doxorubicin co-assayed as reference
Description: Therefore, following the procedure reported by Patra et al., the topoisomerase II activity was evaluated.

[4] = tested on: HT29; experiment: NCI-60 one-dose screen, HT29; type: cell-based; conditions: Homo sapiens, HT-29; HT29, colon cancer; single dose 10 μM; read-out: Growth inhibition %
Description: as §1, §2

[5] = tested on: HOP-92; experiment: NCI-60 one-dose screen, HOP-92; type: cell-based; conditions: Homo sapiens; HOP-92, non-small cell lung cancer; single dose 10 μM; read-out: Growth inhibition %
Description: as §1, §2

[6] = tested on: M14; experiment: NCI-60 one-dose screen, M14; type: cell-based; conditions: Homo sapiens; M14, melanoma; single dose 10 μM; read-out: Growth inhibition %
Description: as §1, §2

[7] = tested on: SK-MEL-28; experiment: NCI-60 one-dose screen, SK-MEL-28; type: cell-based; conditions: Homo sapiens; SK-MEL-28, melanoma; single dose 10 μM; read-out: Growth inhibition %
Description: as §1, §2

[8] = tested on: SW-620; experiment: NCI-60 one-dose screen, SW-620; type: cell-based; conditions: Homo sapiens; SW-620, colon cancer; single dose 10 μM; read-out: Growth inhibition %
Description: as §1, §2

[9] = tested on: T-47D; experiment: NCI-60 one-dose screen, T-47D; type: cell-based; conditions: Homo sapiens, T47D, breast cancer, single dose 10 μM, read-out: Growth inhibition %
Description: as §1, §2

[10] = tested on: EKVX; experiment: NCI-60 one-dose screen, EKVX; type: cell-based; conditions: Homo sapiens, non-small cell lung cancer, single dose 10 μM, read-out: Growth inhibition %
Description: as §1, §2

[11] = tested on: MDA-MB-468; experiment: NCI-60 one-dose screen, MDA-MB-468; type: cell-based; conditions: Homo sapiens; MDA-MB-468, breast cancer; single dose 10 μM; read-out: Growth inhibition %
Description: as §1, §2

[12] = tested on: MCF-7; experiment: NCI-60 one-dose screen, MCF-7; type: cell-based; conditions: Homo sapiens, MCF7; MCF-7, breast cancer; single dose 10 μM; read-out: Growth inhibition %
Description: as §1, §2

[13] = tested on: SF-268; experiment: NCI-60 one-dose screen, SF-268; type: cell-based; conditions: Homo sapiens; SF-268, CNS cancer; single dose 10 μM; read-out: Growth inhibition %
Description: as §1, §2

[14] = tested on: HL-60(TB); experiment: NCI-60 one-dose screen, HL-60(TB); type: cell-based; conditions: Homo sapiens, leukaemia, single dose 10 μM, read-out: Growth inhibition %
Description: as §1, §2

[15] = tested on: SR; experiment: NCI-60 one-dose screen, SR; type: cell-based; conditions: Homo sapiens, leukaemia, single dose 10 μM, read-out: Growth inhibition %
Description: as §1, §2

[16] = tested on: RPMI-8226; experiment: NCI-60 one-dose screen, RPMI-8226; type: cell-based; conditions: Homo sapiens; RPMI-8226, leukaemia; single dose 10 μM; read-out: Growth inhibition %
Description: as §1, §2

[17] = tested on: MOLT-4; experiment: NCI-60 one-dose screen, MOLT-4; type: cell-based; conditions: Homo sapiens; MOLT-4, leukaemia; single dose 10 μM; read-out: Growth inhibition %
Description: as §1, §2

[18] = tested on: A549-ATCC; experiment: NCI-60 one-dose screen, A549-ATCC; type: cell-based; conditions: Homo sapiens, non-small cell lung cancer, single dose 10 μM, read-out: Growth inhibition %
Description: as §1, §2

[19] = tested on: SF-539; experiment: NCI-60 one-dose screen, SF-539; type: cell-based; conditions: Homo sapiens; SF-539, CNS cancer; single dose 10 μM; read-out: Growth inhibition %
Description: as §1, §2

[20] = tested on: NCI-H460; experiment: NCI-60 one-dose screen, NCI-H460; type: cell-based; conditions: Homo sapiens; NCI-H460, non-small cell lung cancer; single dose 10 μM; read-out: Growth inhibition %
Description: as §1, §2

[21] = tested on: A498; experiment: NCI-60 one-dose screen, A498; type: cell-based; conditions: Homo sapiens; A498, renal cancer; single dose 10 μM; read-out: Growth inhibition %
Description: as §1, §2

[22] = tested on: HCT-116; experiment: NCI-60 one-dose screen, HCT-116; type: cell-based; conditions: Homo sapiens; HCT-116, colon cancer; single dose 10 μM; read-out: Growth inhibition %
Description: as §1, §2

[23] = tested on: PC-3; experiment: NCI-60 one-dose screen, PC-3; type: cell-based; conditions: Homo sapiens; PC-3, prostate cancer; single dose 10 μM; read-out: Growth inhibition %
Description: as §1, §2

[24] = tested on: OVCAR-3; experiment: NCI-60 one-dose screen, OVCAR-3; type: cell-based; conditions: Homo sapiens; OVCAR-3, ovarian cancer; single dose 10 μM; read-out: Growth inhibition %
Description: as §1, §2

[25] = tested on: LOX IMVI; experiment: NCI-60 one-dose screen, LOX IMVI; type: cell-based; conditions: Homo sapiens, melanoma, single dose 10 μM, read-out: Growth inhibition %
Description: as §1, §2

[26] = tested on: KM12; experiment: NCI-60 one-dose screen, KM12; type: cell-based; conditions: Homo sapiens; KM12, colon cancer; single dose 10 μM; read-out: Growth inhibition %
Description: as §1, §2

Structure (SMILES) | inhibition at 10 µM [1] [%] | inhibition at 10 µM [2] [%] | inhibition at 10 µM [4] [%] | inhibition at 10 µM [5] [%] | inhibition at 10 µM [6] [%] | inhibition at 10 µM [7] [%] | inhibition at 10 µM [8] [%] | inhibition at 10 µM [9] [%] | inhibition at 10 µM [10] [%] | inhibition at 10 µM [11] [%] | inhibition at 10 µM [12] [%] | inhibition at 10 µM [13] [%] | inhibition at 10 µM [14] [%] | inhibition at 10 µM [15] [%] | inhibition at 10 µM [16] [%] | inhibition at 10 µM [17] [%] | inhibition at 10 µM [18] [%] | inhibition at 10 µM [19] [%] | inhibition at 10 µM [20] [%] | inhibition at 10 µM [21] [%] | also measured
C1=Cc2ccccc2N(c2nnc(-c3ccccc3)o2)c2ccccc21 [Compound 5a, 2-(5 h-Dibenzo[b,f]azepin-5-yl)-5-phenyl-1,3,4-oxadiazole] | < 10 | < 10 | < 10 | 18.3 | 12.1 | 28 | < 10 | < 10 | < 10 | 26.1 | 14.4 | < 10 | 13.2 | < 10 | 67.7 | 16.5 | < 10 | < 10 | < 10 | < 10 | pIC50 [3]: 4.81; inhibition at 10 µM [22]: 54.2%; inhibition at 10 µM [23]: < 10%; inhibition at 10 µM [24]: < 10%; inhibition at 10 µM [25]: < 10%; inhibition at 10 µM [26]: < 10%
O=C(Cc1ccccc1)NNC(=O)N1c2ccccc2C=Cc2ccccc21 [Compound 4g, N′-(2-Phenylacetyl)-5H-dibenzo[b,f]azepine-5-carbohydrazide] | < 10 | < 10 | < 10 | < 10 | < 10 | < 10 | < 10 | < 10 | 13.8 | < 10 | < 10 | < 10 | < 10 | < 10 | < 10 | < 10 | < 10 | < 10 | < 10 | < 10 | inhibition at 10 µM [22]: < 10%; inhibition at 10 µM [23]: < 10%; inhibition at 10 µM [24]: < 10%; inhibition at 10 µM [25]: < 10%; inhibition at 10 µM [26]: < 10%
O=C(NNC(=O)N1c2ccccc2C=Cc2ccccc21)c1ccc2ccccc2c1 [Compound 4f, N′-(2-Naphthoyl)-5H-dibenzo[b,f]azepine-5-carbohydrazide] | < 10 | < 10 | 11.4 | 18.6 | < 10 | < 10 | < 10 | 12.6 | 11 | 12.3 | 14 | < 10 | 10 | 12.8 | < 10 | < 10 | < 10 | < 10 | < 10 | < 10 | inhibition at 10 µM [22]: < 10%; inhibition at 10 µM [23]: 25.1%; inhibition at 10 µM [24]: < 10%; inhibition at 10 µM [25]: < 10%; inhibition at 10 µM [26]: < 10%
Clc1ccc(-c2nnc(N3c4ccccc4C=Cc4ccccc43)o2)cc1 [Compound 5c, 2-(4-Chlorophenyl)-5-(5H-dibenzo[b,f]azepin-5-yl)-1,3,4-oxadiazole] | 21.9 | 29.6 | < 10 | 24 | < 10 | < 10 | < 10 | < 10 | 20.8 | 16.7 | 35.6 | 24.7 | 38.1 | 67.5 | 19.2 | 20.4 | 20.3 | < 10 | 57.3 | 12.9 | pIC50 [3]: 4.50; inhibition at 10 µM [22]: 47.7%; inhibition at 10 µM [23]: 44.1%; inhibition at 10 µM [24]: < 10%; inhibition at 10 µM [25]: 35.7%; inhibition at 10 µM [26]: 18.5%
Brc1ccc(-c2nnc(N3c4ccccc4C=Cc4ccccc43)o2)cc1 [Compound 5b, 2-(4-Bromophenyl)-5-(5H-dibenzo[b,f]azepin-5-yl)-1,3,4-oxadiazole] | 24.2 | 30.4 | 18.4 | 33.5 | < 10 | 14.1 | < 10 | 21.5 | 27.6 | 17.8 | 30.5 | 24.7 | 34.6 | 73 | 17.5 | 35.6 | 29.8 | 17.2 | 63.5 | 13.4 | pIC50 [3]: 4.99; inhibition at 10 µM [22]: 52.2%; inhibition at 10 µM [23]: 48.5%; inhibition at 10 µM [24]: < 10%; inhibition at 10 µM [25]: 38.8%; inhibition at 10 µM [26]: 21.4%
C1=Cc2ccccc2N(c2nnc(-c3ccc4ccccc4c3)o2)c2ccccc21 [Compound 5f, 2-(5 h-Dibenzo[b,f]azepin-5-yl)-5-(naphthalen-2-yl)-1,3,4-oxadiazole] | 15.7 | 19.9 | < 10 | 20.9 | < 10 | < 10 | < 10 | 18.3 | 28.9 | 11.1 | 24.4 | 21.9 | < 10 | 58.4 | 12.1 | 16.3 | 28.2 | < 10 | 25.1 | < 10 | Percentage of topoisomerase II inhibition ([3]; at the concentration of 100 µM (Figure 3A)): 88%; pIC50 [3]: 5.02; inhibition at 10 µM [22]: 27.3%; inhibition at 10 µM [23]: 40.9%; inhibition at 10 µM [24]: 2.22%; inhibition at 10 µM [25]: 18.7%; inhibition at 10 µM [26]: < 10%
O=C(NNC(=O)N1c2ccccc2C=Cc2ccccc21)c1ccc(Br)cc1 [Compound 4b, N′-(4-Bromobenzoyl)-5H-dibenzo[b,f]azepine-5-carbohydrazide] | < 10 | < 10 | < 10 | < 10 | < 10 | < 10 | 11.8 | < 10 | < 10 | < 10 | < 10 | 15.1 | < 10 | < 10 | < 10 | < 10 | 18.5 | < 10 | < 10 | < 10 | inhibition at 10 µM [22]: < 10%; inhibition at 10 µM [23]: < 10%; inhibition at 10 µM [24]: < 10%; inhibition at 10 µM [25]: < 10%; inhibition at 10 µM [26]: < 10%
